Values after ≈ are worked out from the molar mass of the structure shown. Where two headings read alike, the source gives them in different places.
Columns and labels:
Candida albicans MYA2876 = test: MIC against fungal strains (Table 1); format: cell-based; settings: Candida albicans, MYA2876, read-out: Minimum inhibitory concentration
Coccidioldes sp. = test: microbe, parasite or virus in culture; format: cell-based, Coccidioides species; settings: Coccidioides, Table 3, RPMI 0.165M MOPS, 24-72 hours
B. dermatitidis = test: MIC against various B. dermatitidis isolates, CLSI M27 & M38; settings: Blastomyces dermatitidis, RPMI 0.165M MOPS, 24-72 hours
P. variatii = test: MIC against filamentous and dimorphic fungi, CLSI M27 & M38 (Table 3); format: cell-based, Paecilomyces variotii; settings: Paecilomyces variotii, P. variatii MYA-3630, RPMI 0.165M MOPS, 24-72 hours, read-out: Minimum inhibitory concentration 100%
L. prolificans = test: MIC against various species, CLSI M27 & M38 (Table 4); settings: Lomentospora prolificans, read-out: Minimum inhibitory concentration 100%
Fusarium = test: as above; format: cell-based; settings: 24-72 hours
Histoplasma capsulatum = test: microbe, parasite or virus in culture; format: cell-based; settings: Histoplasma capsulatum, Table 3, RPMI 0.165M MOPS, 24-72 hours
Rhodotorula pilimanae = test: MIC against fungal strains (Table 1); format: cell-based; settings: Rhodotorula mucilaginosa, read-out: Minimum inhibitory concentration
[1] = system: Cryptococcus neoformans H99; test: MIC against fungal strains (Table 1); format: cell-based; settings: Cryptococcus neoformans, H99, read-out: Minimum inhibitory concentration
Scedosporium = test: MIC against various species, CLSI M27 & M38 (Table 4); settings: Scedosporium
P. variotil = test: as above; format: cell-based, Paecilomyces variotii; settings: Paecilomyces variotii, P. variotil QC, RPMI 0.165M MOPS, 24-72 hours, read-out: Minimum inhibitory concentration 100%
Candida albicans 64124 = test: MIC against fungal strains (Table 1); format: cell-based; settings: read-out: Minimum inhibitory concentration
[2] = system: Fusarium graminearum B4-5A; test: microbe, parasite or virus in culture; format: cell-based; settings: Fusarium graminearum, B45A, read-out: Minimum inhibitory concentration
A. furnigatus = test: MIC against various species, CLSI M27 & M38 (Table 4); settings: Aspergillus fumigatus
Candida auris = test: MIC against yeast, CLSI M27 & M38 (Table 2); settings: Candidozyma auris
C. krusei [3] = test: MIC against various species, CLSI M27 & M38 (Table 4); settings: Pichia kudriavzevii, ATCC6258, read-out: Minimum inhibitory concentration 50%
C. parapsilosis = test: as above; settings: Lodderomyces parapsilosis, ATCC22019, read-out: Minimum inhibitory concentration 50%
Cryptococcus neoformans = test: MIC against yeast, CLSI M27 & M38 (Table 2); settings: Cryptococcus neoformans
Candida glabrata = test: MIC against yeast, CLSI M27 & M38 (Table 2); settings: Nakaseomyces glabratus
Candida parapsilosis = test: MIC against yeast, CLSI M27 & M38 (Table 2); settings: for Minimum inhibitory concentration 50%: Table 2, RPMI 0.165M MOPS, 24-72 hours; for MIC: Lodderomyces parapsilosis
Candida guillermondii = test: MIC against yeast, CLSI M27 & M38 (Table 2); settings: Candida
C. albicans = test: MIC against various species, CLSI M27 & M38 (Table 4); settings: Candida albicans
C. auris = test: as above; settings: Candidozyma auris
C. krusei [4] = test: MIC against yeast, CLSI M27 & M38 (Table 2); settings: Pichia kudriavzevii, ATCC6258, read-out: Minimum inhibitory concentration 50%

C[C@@H](c1ncncc1F)[C@](O)(Cn1cncn1)c1ccc(F)cc1F [Voriconazole, reference compound]
MIC (Candida albicans MYA2876): 0.125 µg/mL (≈ 0.358 µM)
MIC (Coccidioldes sp.; read-out: Minimum inhibitory concentration 100%, Coccidioldes sp. Cocci1): 0.25 µg/mL (≈ 0.716 µM)
MIC (Coccidioldes sp.; read-out: Minimum inhibitory concentration 100%, Coccidioldes sp. Cocci2): 2 µg/mL (≈ 5.73 µM)
MIC (Coccidioldes sp.; read-out: Minimum inhibitory concentration 100%, Coccidioldes sp. DI17-143): 0.125 µg/mL (≈ 0.358 µM)
MIC (B. dermatitidis; read-out: Minimum inhibitory concentration 100%, B. dermatitidis BD1): 0.06 µg/mL (≈ 0.172 µM)
MIC (B. dermatitidis; read-out: Minimum inhibitory concentration 100%, B. dermatitidis BD2): ≤ 0.03 µg/mL
MIC (B. dermatitidis; read-out: Minimum inhibitory concentration 100%, B. dermatitidis BD3): 0.125 µg/mL (≈ 0.358 µM)
MIC (P. variatii): 0.125 µg/mL (≈ 0.358 µM)
MIC (L. prolificans): > 16 µg/mL
MIC (Fusarium; Fusarium FO1, RPMI 0.165M MOPS, read-out: Minimum inhibitory concentration 100%): > 16 µg/mL
Minimum inhibitory concentration 100% (Fusarium; Fusarium FO2, RPMI 0.165M MOPS): >16 µg/mL
Minimum inhibitory concentration 100% (Fusarium; Fusarium FS1, RPMI 0.165M MOPS): >16 µg/mL
MIC (Histoplasma capsulatum; read-out: Minimum inhibitory concentration 100%, Histoplasma capsulatum HC1): 0.125 µg/mL (≈ 0.358 µM)
MIC (Histoplasma capsulatum; read-out: Minimum inhibitory concentration 100%, Histoplasma capsulatum HC2): ≤ 0.03 µg/mL
MIC (Histoplasma capsulatum; read-out: Minimum inhibitory concentration 100%, Histoplasma capsulatum HC3): ≤ 0.03 µg/mL
MIC (Rhodotorula pilimanae): 8 µg/mL (≈ 22.9 µM)
MIC [1]: 0.125 µg/mL (≈ 0.358 µM)
MIC (Scedosporium; read-out: Minimum inhibitory concentration 100%, Scedosporium SA1, RPMI 0.165M MOPS, 24-72 hours): 1 µg/mL (≈ 2.86 µM)
MIC (Scedosporium; read-out: Minimum inhibitory concentration 100%, Scedosporium SB1, RPMI 0.165M MOPS, 24-72 hours): 2 µg/mL (≈ 5.73 µM)
MIC (P. variotil): 0.125 µg/mL (≈ 0.358 µM)
MIC (Candida albicans 64124): > 256 µg/mL
MIC [2]: 32 µg/mL (≈ 91.6 µM)
MIC (A. furnigatus; read-out: Minimum inhibitory concentration 100%, A. furnigatus AF1, RPMI 0.165M MOPS, 24-72 hours): 1 µg/mL (≈ 2.86 µM)
MIC (A. furnigatus; read-out: Minimum inhibitory concentration 100%, A. furnigatus AF2, RPMI 0.165M MOPS, 24-72 hours): 8 µg/mL (≈ 22.9 µM)
MIC (A. furnigatus; read-out: Minimum inhibitory concentration 100%, A. furnigatus AF3, RPMI 0.165M MOPS, 24-72 hours): 4 µg/mL (≈ 11.5 µM)

OC(Cn1cncn1)(Cn1cncn1)c1ccc(F)cc1F [Fluconazole, reference compound]
MIC (Candida auris; read-out: Minimum inhibitory concentration 50%, Candida auris CAU1, RPMI 0.165M MOPS, 24-72 hours): 2 µg/mL (≈ 6.53 µM)
MIC (Candida auris; read-out: Minimum inhibitory concentration 50%, Candida auris CAU2, RPMI 0.165M MOPS, 24-72 hours): 1 µg/mL (≈ 3.27 µM)
MIC (Candida auris; read-out: Minimum inhibitory concentration 50%, Candida auris CAU3, RPMI 0.165M MOPS, 24-72 hours): 0.5 µg/mL (≈ 1.63 µM)
MIC (Candida auris; read-out: Minimum inhibitory concentration 50%, Candida auris CAU4, RPMI 0.165M MOPS, 24-72 hours): > 64 µg/mL
MIC (Candida auris; read-out: Minimum inhibitory concentration 50%, Candida auris CAU5, RPMI 0.165M MOPS, 24-72 hours): 16 µg/mL (≈ 52.2 µM)
MIC (Candida auris; read-out: Minimum inhibitory concentration 50%, Candida auris CAU6, RPMI 0.165M MOPS, 24-72 hours): 2 µg/mL (≈ 6.53 µM)
MIC (Candida auris; read-out: Minimum inhibitory concentration 50%, Candida auris CAU7, RPMI 0.165M MOPS, 24-72 hours): 2 µg/mL (≈ 6.53 µM)
MIC (Candida auris; read-out: Minimum inhibitory concentration 50%, Candida auris DI17-46, RPMI 0.165M MOPS, 24-72 hours): > 64 µg/mL
MIC (Candida auris; read-out: Minimum inhibitory concentration 50%, Candida auris DI17-47, RPMI 0.165M MOPS, 24-72 hours): > 64 µg/mL
MIC (Candida auris; read-out: Minimum inhibitory concentration 50%, Candida auris DI17-48, RPMI 0.165M MOPS, 24-72 hours): 2 µg/mL (≈ 6.53 µM)
MIC (C. krusei [3]): > 16 µg/mL
MIC (C. parapsilosis): 1 µg/mL (≈ 3.27 µM)
MIC (Cryptococcus neoformans; read-out: Minimum inhibitory concentration 50%, Cryptococcus neoformans CN1, RPMI 0.165M MOPS, 24-72 hours): 8 µg/mL (≈ 26.1 µM)
MIC (Cryptococcus neoformans; read-out: Minimum inhibitory concentration 50%, Cryptococcus neoformans H99, RPMI 0.165M MOPS, 24-72 hours): 16 µg/mL (≈ 52.2 µM)
MIC (Cryptococcus neoformans; read-out: Minimum inhibitory concentration 50%, Cryptococcus neoformans USC1597, RPMI 0.165M MOPS, 24-72 hours): 2 µg/mL (≈ 6.53 µM)
MIC (Candida glabrata; read-out: Minimum inhibitory concentration 50%, Candida glabrata CG1, RPMI 0.165M MOPS, 24-72 hours): > 64 µg/mL
MIC (Candida glabrata; read-out: Minimum inhibitory concentration 50%, Candida glabrata CG2, RPMI 0.165M MOPS, 24-72 hours): 8 µg/mL (≈ 26.1 µM)
MIC (Candida glabrata; read-out: Minimum inhibitory concentration 50%, Candida glabrata CG3, RPMI 0.165M MOPS, 24-72 hours): 64 µg/mL (≈ 209 µM)
Minimum inhibitory concentration 50% (Candida parapsilosis; Candida parapsilosis CP2): 0.5 µg/mL (≈ 1.63 µM)
Minimum inhibitory concentration 50% (Candida parapsilosis; Candida parapsilosis CP3): 0.5 µg/mL (≈ 1.63 µM)
MIC (Candida parapsilosis; ATCC22019, read-out: Minimum inhibitory concentration 50%): 1 µg/mL (≈ 3.27 µM)
MIC (Candida parapsilosis; read-out: Minimum inhibitory concentration 50%): 0.5 µg/mL (≈ 1.63 µM)
MIC (Candida guillermondii; read-out: Minimum inhibitory concentration 50%, Candida guillermondii CGUI1, RPMI 0.165M MOPS, 24-72 hours): 1 µg/mL (≈ 3.27 µM)
MIC (Candida guillermondii; read-out: Minimum inhibitory concentration 50%, Candida guillermondii CGUI2, RPMI 0.165M MOPS, 24-72 hours): 2 µg/mL (≈ 6.53 µM)
MIC (Candida guillermondii; read-out: Minimum inhibitory concentration 50%, Candida guillermondii CGUI3, RPMI 0.165M MOPS, 24-72 hours): 2 µg/mL (≈ 6.53 µM)
MIC (C. albicans; read-out: Minimum inhibitory concentration 50%, C. albicans CA1, RPMI 0.165M MOPS, 24-72 hours): ≤ 0.125 µg/mL
MIC (C. albicans; read-out: Minimum inhibitory concentration 50%, C. albicans CA2, RPMI 0.165M MOPS, 24-72 hours): ≤ 0.125 µg/mL
MIC (C. albicans; read-out: Minimum inhibitory concentration 50%, C. albicans CA3, RPMI 0.165M MOPS, 24-72 hours): > 64 µg/mL
MIC (C. auris; read-out: Minimum inhibitory concentration 50%, C. auris DI17-46, RPMI 0.165M MOPS, 24-72 hours): > 64 µg/mL
MIC (C. auris; read-out: Minimum inhibitory concentration 50%, C. auris DI17-47, RPMI 0.165M MOPS, 24-72 hours): > 64 µg/mL
MIC (C. auris; read-out: Minimum inhibitory concentration 50%, C. auris DI17-48, RPMI 0.165M MOPS, 24-72 hours): 2 µg/mL (≈ 6.53 µM)
MIC (C. krusei [4]): 16 µg/mL (≈ 52.2 µM)

Source: patent publication US20210230203A1, “Amphiphilic Kanamycin Compositions and Methods” (priority 2020, published 2021)
